Tests used:
[1] = tested on: Aspergillus niger ATCC 16404; test: Macro-dilution broth susceptibility method (Example 6); type: cell-based
Procedure: The mold Aspergillus niger ATCC 16404 was selected for the antifungal testing and maintained on Sabouraud Dextrose Agar. Aspergillus niger is a mold that commonly causes opportunistic infections in humans. Spores are prevalent in soil and on decaying organic matter. Aspergillus niger is also a common cause of contamination in products. The organism was cultured in 10 ml of Tryptic Soy Broth for 7 days at 22° C. After incubation, 1 ml of mold culture was added to 10 ml of 0.1% Tween 80 solution in sterile saline to achieve a spore concentration of 0.5 McFarland (1×10^8 spores/ml). This concentration was determined by visual comparison to a 0.5 McFarland standard. […]
The final concentration of mold spores in each sample was 1×10^4-1×10^5 spores/ml. The prepared tubes of TSB were incubated at 37° C. for 5 days, and the results recorded at 3 and 5 days. […]
The results were scored in relation to the growth present in the negative control tube. […] Partial activity (P) was recorded when the sample tube of TSB was less turbid than the control tube, and now growth (I) was recorded when there was total inhibition and the broth in the tube appeared clear. When a result of (I) was scored, the MIC was established by performing the appropriate dilutions.

P. aeruginosa ATCC 27853 = test: Agar Dilution susceptibility method (Example 5); type: cell-based, Pseudomonas aeruginosa
Procedure: The Agar Dilution susceptibility method was used to test the effectiveness of the antimicrobial composition of Example 1. The organisms used were S. aureus ATCC 29213, E. coli ATCC 25922, S. typhimurium ATCC 14028, K. pneumoniae ATCC 10031, P. aeruginosa ATCC 27853, C. albicans ATCC 10231, and M. smegmatis ATCC 14468. The organisms were maintained on Tryptic Soy Agar (TSA) slants. For each week, the organisms were cultured in 10 ml of Tryptic Soy Broth (TSB). After incubation at 37° C. for 17 hours (48 hours for M. smegmatis), the organism suspensions were diluted with 10 ml of sterile saline as shown in Table 4. The mold Aspergillus niger was sustained on a Sabouraud Dextrose Agar slant. The sample was then cultured in 10 ml of Tryptic Soy Broth and incubated for 7 days at 22° C. The mold was then diluted in 0.1% Tween 80 in saline. The diluted bacteria and yeast organisms were then inoculated onto the prepared sample plates with a 1 μl loop. The mold Aspergillus niger was added to prepared sample tubes with a 100 μl pipette.
Phenyloxyethanol (PE), phenylethyl alcohol (PEA) and methyl/propylparabens (MP) in a ratio of 5:4 were initially screened at their commonly recommended effective concentrations of 0.3% v/v (3 μl/ml); 1% v/v (10 μl/ml); and 0.18% w/v (1 mg methyl and 0.8 mg propylparaben/ml), respectively. The antimicrobial agent was used at an initial concentration of 0.15% v/v (1.5 μl/ml).
The sample plates for the bacteria and yeast were prepared as follows: • Prepare 10 ml tubes of TSA and allow to cool to 50° C., • Add the calculated amount of the preservative or antimicrobial agent to 100 μl dimethylsulfoxide (DMSO) to achieve the specified concentration per ml TSA when 100 μl of the DMSO solution are added to a test tube containing 10 ml of TSA, • Vortex to homogenize the mixture in TSA, • Pour TSA and the preservative or antimicrobial agent into a properly labeled Petri dish, • Allow to cool overnight at room temperature. […]
The results for the bacteria and yeast were scored in relation to the growth present on the positive control plate. […]

Minimum Inhibitory Concentration (MIC) ([1]; macro-dilution broth, Example 6): 2.5 μl/ml
Minimum Inhibitory Concentration (MIC) (sample/ml of agar or broth) (P. aeruginosa ATCC 27853): 5.0 μl/ml
Structure (SMILES): OCCc1ccccc1 [Phenylethyl Alcohol]
growth score ([1]; 2.5 μl/ml): I
growth score (P. aeruginosa ATCC 27853; 5.0 μl/ml): I
growth score (P. aeruginosa ATCC 27853; 6.0 μl/ml): I

Reference: patent US7429396B2, “Antifungal composition, its fungicidal effect on pathogenic dermatophytes, and process for inhibiting growth of fungi” (Bio-Botanica, Inc., priority 2003, dated 2008)
